Experimental data taken from the SangsterLogP compilation.

How the values were obtained:
[1] = method code SF, from DOI: 10.1016/0223-5234(96)88244-4; conditions: pH 7.4

SMILES	logP	logD [1]
CCNC(=NC#N)NS(=O)(=O)c1cnccc1NC1CCCCC1	0.16	
N#CN=C(NS(=O)(=O)c1cnccc1NC1CCCCCC1)N1CCCC1	1.65	
CC(C)NC(=NC#N)NS(=O)(=O)c1cnccc1NC1CCCCC1	0.75	
CC(C)NC(=NC#N)NS(=O)(=O)c1cnccc1NC1CC1	-0.77	
N#CN=C(NS(=O)(=O)c1cnccc1NC1CCCCC1)N1CCCC1		1.07
CC(C)NC(=NC#N)NS(=O)(=O)c1cnccc1Nc1cccc(Br)c1	1.27	
CC(C)NC(=NC#N)NS(=O)(=O)c1cnccc1NC1CCCCCCC1	1.8	
Cc1ccc(Nc2ccncc2S(=O)(=O)NC(=NC#N)NC(C)C)cc1	0.91	
CC(C)N=C(NC#N)NS(=O)(=O)c1cnccc1Nc1cccc(F)c1	0.59	
CNc1ccncc1S(=O)(=O)NC(=NC#N)NC(C)C	-1.43	
CC(C)NC(=NC#N)NS(=O)(=O)c1cnccc1NC1CCCCCCCCCCC1	3.73	
N#CN=C(NS(=O)(=O)c1cnccc1NC1CCCCCCC1)N1CCCC1	2.15	
CC(C)NC(=NC#N)NS(=O)(=O)c1cnccc1Nc1cccc(I)c1	1.51	
CC(C)NC(=NC#N)NS(=O)(=O)c1cnccc1Nc1ccc(Cl)cc1	1.37	
Cc1ccccc1Nc1ccncc1S(=O)(=O)NC(=NC#N)NC(C)C	0.67	

Next, values leading:

logP	logD [1]	SMILES
1.14		CC(C)NC(=NC#N)NS(=O)(=O)c1cnccc1Nc1cccc(Cl)c1
0.1		CC(C)CNc1ccncc1S(=O)(=O)NC(=NC#N)NC(C)C
-1.02		CCNc1ccncc1S(=O)(=O)NC(=NC#N)NC(C)C
0.75		CCNC(=NC#N)NS(=O)(=O)c1cnccc1NC1CCCCCC1
0.2		CC(C)NC(=NC#N)NS(=O)(=O)c1cnccc1NC1CCCC1
-0.43		CCCNc1ccncc1S(=O)(=O)NC(=NC#N)NC(C)C
0.86		Cc1cccc(Nc2ccncc2S(=O)(=O)NC(=NC#N)NC(C)C)c1
